Test results: patent US20250109140A1, “5-[5-(PIPERIDIN-4-YL)THIENO[3,2-C]PYRAZOL-2-YL]INDAZOLE DERIVATIVES AND RELATED COMPOUNDS AS MODULATORS FOR SPLICING NUCLEIC ACIDS AND FOR THE TREATMENT OF PROLIFERATIVE DISEASES” (REMIX THERAPUTICS INC., priority 2022, published 2025)
pEC50, pIC50: −log10 of the molar value. Read-outs that look alike come from different tables or passages of the source.

Tests used:
Format in all cases: cell-based
[1] = system: HTT mRNA; assay: Splicing RT-qPCR assay, HTT canonical (CJ) and alternative (AJ) junction mRNA; details: Homo sapiens; for pEC50: AC50 = 50% response in AJ mRNA increase
Protocol: (§1) Compounds described herein were used to modulate RNA transcript abundance in cells. The expression of a target mRNA was measured by detecting the formation of an exon-exon junction in the canonical transcript (CJ). A compound mediated exon-inclusion event was detected by observing an increase in formation of a new junction with an alternative exon (AJ). Real-time qPCR assays were used to detect these splicing switches and interrogate the potency of various compounds towards different target genes. A high-throughput real time quantitative PCR (RT-qPCR) assay was developed to measure these two isoforms of the mRNA (CJ and AJ) for exemplary genes, such as HTT, SMN2, and MYB, together with a control housekeeping gene, GAPDH or GUSB or PPIA, used for normalization. Briefly, the A673 or K562 cell line was treated with various compounds described herein (e.g., compounds of Formula (I)). After treatment, the levels of the HTT, MYB, or SMN2 mRNA targets were determined from each sample of cell lysate by cDNA synthesis followed by qPCR.
(§2) The A673 cell line was cultured in DMEM with 10% FBS. Cells were diluted with full growth media and plated in a 96-well plate (15,000 cells in 100 ul media per well). The plate was incubated at 37° C. with 5% CO2 for 24 hours to allow cells to adhere. An 11-point 3-fold serial dilution of the compounds was made in DMSO then diluted in media in an intermediate plate. Compounds were transferred from the intermediate plate to the cell plate with the top dose at a final concentration of 10 uM in the well. Final DMSO concentration was kept at or below 0.25%. The cell plate was returned to the incubator at 37° C. with 5% CO2 for an additional 24 hours.
(§3) The K562 cell line was cultured in IMDM with 10% FBS. For K562, cells were diluted with full growth media and plated in either a 96-well plate (50,000 cells in 50 uL media per well) or a 384-well plate (8,000-40,000 cells in 45 uL media per well). An 11-point 3-fold serial dilution of the compounds were made in DMSO then diluted in media in an intermediate plate. Compound was transferred from the intermediate plate to the cell plate with the top dose at a final concentration of 10 uM in the well. Final DMSO concentration was kept at or below 0.25%. Final volume was 100 uL for 96-well plate and 50 uL for 384-well plate. The cell plate was then placed in an incubator at 37° C. with 5% CO2 for 24 hours.
(§4) The cells were then gently washed with 50 uL-100 uL cold PBS before proceeding to addition of lysis buffer. 30 uL-50 uL of room temperature lysis buffer with DNAse I (and optionally RNAsin) was added to each well. Cells were shaken/mixed thoroughly at room temperature for 5-10 minutes for lysis to take place and then 3 uL-5 uL of room temperature stop solution was added and wells were shaken/mixed again. After 2-5 minutes, the cell lysate plate was transferred to ice for RT-qPCR reaction setup. The lysates could also be frozen at-80° C. for later use.
(§5) In some cases, a direct lysis buffer was used. An appropriate volume of 3× lysis buffer (10 mM Tris, 150 mM NaCl, 1.5%-2.5% Igepal and 0.1-1 U/uL RNAsin, pH 7.4) was directly added to either K562 or A673 cells in media and mixed by pipetting 3 times. The plates were then incubated at room temperature with shaking/rocking for 20-50 minutes to allow for lysis to take place. After this time, the cell lysate plate was transferred to ice to set up for the RT-qPCR reactions. The lysates could also be frozen at −80° C. for later use.
(§6) To set up 10 uL RT-qPCR reactions, cell lysates were transferred to 384-well qPCR plates containing the master mix according to the table below. The plates were sealed, gently vortexed, and spun down before the run. The volumes were adjusted accordingly in some instances where the reaction was carried in 20 μL. The table below summarizes the components of the RT-qPCR reactions:
(§7) The RT-qPCR reaction was performed using a QuantStudio (ThermoFisher) under the following fast cycling conditions. […]

[2] = system: MYB mRNA; assay: Splicing RT-qPCR assay, MYB canonical (CJ) and alternative (AJ) junction mRNA; details: Homo sapiens; for pEC50: AC50 = 50% response in AJ mRNA increase
Protocol: as §1, §2, §3, §4, §5, §6, §7

[3] = system: SMN2 mRNA; assay: Splicing RT-qPCR gene panel, SMN2 canonical junction (CJ) mRNA; details: Homo sapiens; Table 8; larger gene panel, decrease in CJ mRNA levels
Protocol: as §1, §2, §3, §4, §5, §6, §7

[4] = system: Target C mRNA; assay: Splicing RT-qPCR gene panel, Target C canonical junction (CJ) mRNA; details: Homo sapiens; Table 8; larger gene panel, decrease in CJ mRNA levels
Protocol: as §1, §2, §3, §4, §5, §6, §7

[5] = Table 7, RT-qPCR, A673 or K562 cells, 24 hours treatment
[6] = Table 7, IC50 = 50% response in CJ mRNA decrease, RT-qPCR, A673 or K562 cells, 24 hours treatment, read-out: HTT CJ
[7] = Table 8, larger gene panel, decrease in CJ mRNA levels, read-out: HTT CJ IC50
[8] = Table 7, IC50 = 50% response in CJ mRNA decrease, RT-qPCR, A673 or K562 cells, 24 hours treatment, read-out: MYB CJ
[9] = Table 8, larger gene panel, decrease in CJ mRNA levels, read-out: MYB CJ IC50

pEC50 [1, 5] | pIC50 [1, 6] | pIC50 [1, 7] | pEC50 [2, 5] | pIC50 [2, 8] | pIC50 [2, 9] | pIC50 [3] | pIC50 [4] | SMILES
5.00 to 6.00 | 5.00 to 6.00 | 5.00 to 6.00 | 5.00 to 6.00 | < 5.00 | 5.00 to 6.00 | 6.00 to 7.00 | < 5.00 | Cn1cc2c(O)c(-c3nc4sc(C5CCNCC5)cc4s3)ccc2n1 [Compound 231, 2-methyl-5-[5-(piperidin-4-yl)thieno[2,3-d][1,3]thiazol-2-yl]indazol-4-ol]
5.00 to 6.00 | 5.00 to 6.00 | 5.00 to 6.00 | 5.00 to 6.00 | 5.00 to 6.00 | 5.00 to 6.00 | 5.00 to 6.00 | 5.00 to 6.00 | Cn1cc2c(F)cc(-c3nc4sc(C5CCNCC5)cc4s3)cc2n1 [Compound 131, 4-fluoro-2-methyl-6-[5-(piperidin-4-yl)thieno[2,3-d][1,3]thiazol-2-yl]indazole]
6.00 to 7.00 | > 7.00 | 6.00 to 7.00 | 6.00 to 7.00 | 6.00 to 7.00 | 6.00 to 7.00 | > 7.00 | 6.00 to 7.00 | Cc1cn2cc(-c3nc4sc(C5CCNCC5)cc4s3)ccc2n1 [Compound 271, 4-(2-{2-methylimidazo[1,2-a]pyridin-6-yl}thieno[2,3-d][1,3]thiazol-5-yl)piperidine]
6.00 to 7.00 | 6.00 to 7.00 | 6.00 to 7.00 | 6.00 to 7.00 | 6.00 to 7.00 | 6.00 to 7.00 | > 7.00 | 5.00 to 6.00 | Cn1cc2cc(-c3nc4sc(N5CCNC(C)(C)C5)cc4s3)cc(F)c2n1 [Compound 142, 5-[5-(3,3-dimethylpiperazin-1-yl)thieno[2,3-d][1,3]thiazol-2-yl]-7-fluoro-2-methylindazole]
< 5.00 | < 5.00 | < 5.00 | < 5.00 | < 5.00 | < 5.00 | 5.00 to 6.00 | < 5.00 | CN1CCCC2(CCN2c2cc3sc(-c4cc(F)c5nn(C)cc5c4)nc3s2)C1 (stereo not shown) [Compound 203, 1-[2-(7-fluoro-2-methylindazol-5-yl)thieno[2,3-d][1,3]thiazol-5-yl]-6-methyl-1,6-diazaspiro[3.5]nonane]
6.00 to 7.00 | 6.00 to 7.00 | 6.00 to 7.00 | 6.00 to 7.00 | 6.00 to 7.00 | 6.00 to 7.00 | 6.00 to 7.00 | 5.00 to 6.00 | Cc1cn2nc(-c3nc4sc(C5CCNC5)cc4s3)cc(C)c2n1 (stereo not shown) [Compound 197, 3-(2-{2,8-dimethylimidazo[1,2-b]pyridazin-6-yl}thieno [2,3-d][1,3]thiazol-5-yl)pyrrolidine]
6.00 to 7.00 | 6.00 to 7.00 | 6.00 to 7.00 | 6.00 to 7.00 | 6.00 to 7.00 | 6.00 to 7.00 | 6.00 to 7.00 | 6.00 to 7.00 | Cc1cn2nc(-c3nc4sc(C5CCNCC5)cc4s3)cc2c(C)n1 [Compound 133, 4-(2-[4,6-dimethylpyrazolo[1,5-a]pyrazin-2-yl]thieno[2,3-d][1,3]thiazol-5-yl)piperidine]
> 7.00 | > 7.00 | > 7.00 | > 7.00 | > 7.00 | > 7.00 | > 7.00 | > 7.00 | C[C@@H]1C[C@H](c2cc3sc(-c4cc(F)c5nn(C)cc5c4)nc3s2)CCN1 (single isomer, unassigned) [Compound 192, 7-fluoro-2-methyl-5-[5-(2-methylpiperidin-4-yl)thieno[2,3-d][1,3]thiazol-2-yl]indazole]
